PubChem BioAssay (NCI)
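Compound exposure: 48 hours, 5 concentrations, 96-well plates. GI50: concentration for 50% inhibition of growth. At the TGI there is no net growth.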

Tests used:
Experiment in all cases: NCI tumour cell line growth inhibition, 48 h
[1] = system: 786-0 renal
[2] = system: A498 renal
[3] = system: ACHN renal
[4] = system: BT-549 breast
[5] = system: CAKI-1 renal
[6] = system: CCRF-CEM leukemia
[7] = system: COLO 205 colon
[8] = system: DU-145 prostate
[9] = system: EKVX NSCLC
[10] = system: HCC-2998 colon
[11] = system: HCT-116 colon
[12] = system: HCT-15 colon
[13] = system: HOP-62 NSCLC
[14] = system: HOP-92 NSCLC
[15] = system: HS 578T breast
[16] = system: HT29 colon
[17] = system: IGROV1 ovarian
[18] = system: K-562 leukemia
[19] = system: KM12 colon
[20] = system: M14 melanoma
[21] = system: MALME-3M melanoma
[22] = system: MCF7 breast
[23] = system: MDA-MB-231 breast
[24] = system: MDA-MB-435
[25] = system: MOLT-4 leukemia
[26] = system: NCI-H226 lung
[27] = system: NCI-H23 lung
[28] = system: NCI-H460 lung
[29] = system: NCI-H522 lung
[30] = system: NCI/ADR-RES ovarian
[31] = system: OVCAR-3 ovarian
[32] = system: OVCAR-5 ovarian
[33] = system: PC-3 prostate
[34] = system: RPMI-8226 leukemia
[35] = system: SF-268 CNS
[36] = system: SF-295 CNS
[37] = system: SF-539 CNS
[38] = system: SK-MEL-2 melanoma
[39] = system: SK-MEL-28 melanoma
[40] = system: SK-MEL-5 melanoma
[41] = system: SK-OV-3 ovarian
[42] = system: SN12C renal
[43] = system: SNB-19 CNS
[44] = system: SNB-75 CNS
[45] = system: SW-620 colon
[46] = system: T-47D breast
[47] = system: TK-10 renal
[48] = system: U251 CNS
[49] = system: UACC-62 melanoma
[50] = system: UO-31 renal

Q: With `C/C(=N\O)c1cccc(Nc2cc(-n3ccnc3)c3ccccc3n2)c1` as the compound, how does the GI50 [1] read?
A: The GI50 was 12.2 µM.

Q: And the TGI [1]?
A: Its TGI is 28.7 µM.

Q: And the GI50 [2]?
A: Its GI50 is 21.6 µM.

Q: What about the TGI [2] of the same compound?
A: Its TGI is 39.1 µM.

Q: And the GI50 [3]?
A: Its GI50 is 7.31 µM.

Q: What about the TGI [3] of the same compound?
A: The TGI was 19.4 µM.

Q: What about the GI50 [4] of the same compound?
A: Its GI50 is 17 µM.

Q: And the TGI [4]?
A: The TGI was 35.1 µM.

Q: What about the GI50 [5] of the same compound?
A: Its GI50 is 11.2 µM.

Q: And the TGI [5]?
A: Its TGI is 32.9 µM.

Q: And the GI50 [6]?
A: The GI50 was 24.9 µM.

Q: What about the TGI [6] of the same compound?
A: The TGI was 64.5 µM.

Q: And the GI50 [7]?
A: Its GI50 is 13 µM.

Q: And the TGI [7]?
A: Its TGI is 29.1 µM.

Q: And the GI50 [8]?
A: Its GI50 is 18.9 µM.

Q: What about the TGI [8] of the same compound?
A: Its TGI is 35.8 µM.

Q: What about the GI50 [9] of the same compound?
A: The GI50 was 13.2 µM.

Q: What about the TGI [9] of the same compound?
A: Its TGI is 28.1 µM.

Q: What about the GI50 [10] of the same compound?
A: Its GI50 is 17.3 µM.

Q: What about the TGI [10] of the same compound?
A: Its TGI is 31.7 µM.

Q: What about the GI50 [11] of the same compound?
A: Its GI50 is 13.9 µM.

Q: And the TGI [11]?
A: The TGI was 26.8 µM.

Q: And the GI50 [12]?
A: The GI50 was 9.26 µM.

Q: And the TGI [12]?
A: Its TGI is 22.6 µM.

Q: And the GI50 [13]?
A: Its GI50 is 16.6 µM.

Q: And the TGI [13]?
A: The TGI was 31.3 µM.

Q: And the GI50 [14]?
A: The GI50 was 30.2 µM.

Q: And the TGI [14]?
A: Its TGI is 92.1 µM.

Q: And the GI50 [15]?
A: Its GI50 is 17.2 µM.

Q: What about the TGI [15] of the same compound?
A: Its TGI is 60.9 µM.

Q: What about the GI50 [16] of the same compound?
A: Its GI50 is 14.7 µM.

Q: And the TGI [16]?
A: Its TGI is 49.4 µM.

Q: And the GI50 [17]?
A: The GI50 was 4.3 µM.

Q: What about the TGI [17] of the same compound?
A: The TGI was 20.5 µM.

Q: And the GI50 [18]?
A: The GI50 was 18.9 µM.

Q: What about the TGI [18] of the same compound?
A: Its TGI is 73.1 µM.

Q: What about the GI50 [19] of the same compound?
A: Its GI50 is 10.5 µM.

Q: And the TGI [19]?
A: The TGI was 31.8 µM.

Q: What about the GI50 [20] of the same compound?
A: The GI50 was 11.6 µM.

Q: And the TGI [20]?
A: Its TGI is 24.1 µM.

Q: And the GI50 [21]?
A: Its GI50 is 11.1 µM.

Q: And the TGI [21]?
A: Its TGI is 25.3 µM.

Q: What about the GI50 [22] of the same compound?
A: The GI50 was over 100 µM.

Q: And the TGI [22]?
A: The TGI was over 100 µM.

Q: What about the GI50 [23] of the same compound?
A: The GI50 was 6.26 µM.

Q: What about the TGI [23] of the same compound?
A: The TGI was 24 µM.

Q: What about the GI50 [24] of the same compound?
A: Its GI50 is 10.9 µM.

Q: What about the TGI [24] of the same compound?
A: The TGI was 24.4 µM.

Q: What about the GI50 [25] of the same compound?
A: The GI50 was 12.6 µM.

Q: And the TGI [25]?
A: The TGI was 37.5 µM.

Q: What about the GI50 [26] of the same compound?
A: Its GI50 is 3.59 µM.

Q: What about the TGI [26] of the same compound?
A: Its TGI is 20.9 µM.

Q: And the GI50 [27]?
A: The GI50 was 16.7 µM.

Q: What about the TGI [27] of the same compound?
A: The TGI was 33.6 µM.

Q: And the GI50 [28]?
A: Its GI50 is over 100 µM.

Q: And the TGI [28]?
A: Its TGI is over 100 µM.

Q: What about the GI50 [29] of the same compound?
A: The GI50 was 14.3 µM.

Q: And the TGI [29]?
A: Its TGI is 30.7 µM.

Q: What about the GI50 [30] of the same compound?
A: Its GI50 is 17.2 µM.

Q: And the TGI [30]?
A: The TGI was 59.2 µM.

Q: What about the GI50 [31] of the same compound?
A: Its GI50 is 14.7 µM.

Q: And the TGI [31]?
A: The TGI was 39.6 µM.

Q: What about the GI50 [32] of the same compound?
A: Its GI50 is 20.9 µM.

Q: What about the TGI [32] of the same compound?
A: Its TGI is 40.9 µM.

Q: What about the GI50 [33] of the same compound?
A: Its GI50 is 24.8 µM.

Q: What about the TGI [33] of the same compound?
A: Its TGI is 76.6 µM.

Q: And the GI50 [34]?
A: Its GI50 is 21.2 µM.

Q: What about the TGI [34] of the same compound?
A: The TGI was over 100 µM.

Q: And the GI50 [35]?
A: Its GI50 is over 100 µM.

Q: What about the TGI [35] of the same compound?
A: Its TGI is over 100 µM.

Q: What about the GI50 [36] of the same compound?
A: The GI50 was 8.16 µM.

Q: And the TGI [36]?
A: The TGI was 22.8 µM.

Q: What about the GI50 [37] of the same compound?
A: Its GI50 is 17.2 µM.

Q: And the TGI [37]?
A: Its TGI is 33.5 µM.

Q: And the GI50 [38]?
A: The GI50 was 16.4 µM.

Q: And the TGI [38]?
A: Its TGI is 31.6 µM.

Q: What about the GI50 [39] of the same compound?
A: Its GI50 is 14.3 µM.

Q: And the TGI [39]?
A: The TGI was 29.8 µM.

Q: And the GI50 [40]?
A: Its GI50 is 13.9 µM.

Q: What about the TGI [40] of the same compound?
A: The TGI was 27.2 µM.

Q: And the GI50 [41]?
A: The GI50 was 20.9 µM.

Q: And the TGI [41]?
A: Its TGI is 60.5 µM.

Q: What about the GI50 [42] of the same compound?
A: Its GI50 is 16.2 µM.

Q: And the TGI [42]?
A: The TGI was 38.2 µM.

Q: And the GI50 [43]?
A: The GI50 was 17.5 µM.

Q: And the TGI [43]?
A: The TGI was 43.6 µM.

Q: What about the GI50 [44] of the same compound?
A: Its GI50 is 11.4 µM.

Q: What about the TGI [44] of the same compound?
A: Its TGI is 26.8 µM.

Q: What about the GI50 [45] of the same compound?
A: The GI50 was 19.6 µM.

Q: And the TGI [45]?
A: Its TGI is 42.1 µM.

Q: And the GI50 [46]?
A: Its GI50 is 9.32 µM.

Q: What about the TGI [46] of the same compound?
A: Its TGI is 35.8 µM.

Q: What about the GI50 [47] of the same compound?
A: The GI50 was 15.6 µM.

Q: And the TGI [47]?
A: The TGI was 38.8 µM.

Q: And the GI50 [48]?
A: The GI50 was 12.4 µM.

Q: And the TGI [48]?
A: Its TGI is 28.7 µM.

Q: What about the GI50 [49] of the same compound?
A: Its GI50 is 6.63 µM.

Q: What about the TGI [49] of the same compound?
A: Its TGI is 19.5 µM.

Q: What about the GI50 [50] of the same compound?
A: The GI50 was 13.8 µM.

Q: And the TGI [50]?
A: The TGI was 34.6 µM.
